From EPA's ToxValDB 9.5 (doi:10.2903/j.efsa.2008.116r) come the findings set out here.

One data set has as its system Apis mellifera. To be noted: acute; duration: 48 hours; dermal; mortality.
The next data set has as its system Canidae. The conditions noted are these: oral, Dog Other, clinical chemistry.
Another data set has as its system Coturnix coturnix. The conditions noted are these: reproduction developmental.
The test system of another data set is Coturnix japonica. To be noted: acute, oral, mortality.
Another data set has as its system Daphnia magna. The conditions noted are these: chronic/long-term; duration: 21 days; reproduction.
The next data set concerns Lepomis macrochirus. To be noted: acute; duration: 96 hours; mortality.
For a further data set, the system named is Mus musculus. To be noted: acute; oral; mortality.
The next data set concerns Oncorhynchus mykiss. The conditions noted are these: chronic/long-term; duration: 21 days; growth.
A further data set deals with Tagia sp. The conditions noted are these: acute; duration: 14 days; mortality.
In a further data set the test system is Aphidius rhopalosiphi. As to the kind of experiment: LR50; higher = less toxic. The conditions noted are these: not reported; mortality.
The subject of the next data set is Typhlodromus pyri. As to the kind of experiment: LR50; higher = less toxic. To be noted: not reported; mortality.

Structures are written as SMILES. Where only a bound is given, the exact number is not on record here.

As for `COc1cc(OC)nc(NC(=O)NS(=O)(=O)N(C)S(C)(=O)=O)n1` [Amidosulfuron], the LD50 was more than 100 µg/piece with Apis mellifera, more than 2000 mg/kg-day with Coturnix japonica and not below 5000 mg/kg-day with Mus musculus. Further, the NOAEL (commonly the highest dose or exposure tested at which no adverse effect was seen) in the data set with Canidae (chronic, duration: 52 weeks) is 144 mg/kg-day; in the data set on Canidae (subchronic, duration: 3 months), 144 mg/kg-day; in the data set on Rattus norvegicus (reproduction developmental, body weight) it was 22.5 mg/kg-day. For the same compound, the NOEC stood at 1000 mg/kg-day with Coturnix coturnix; 1 mg/L in the data set on Daphnia magna; 6.41 mg/L with Oncorhynchus mykiss; 400 mg/kg-day in the data set with Rattus norvegicus (chronic, mortality); 22.5 mg/kg-day in the data set on Rattus norvegicus (reproduction developmental, organ weight). For the same compound, the LC50 in the data set on Coturnix japonica (diet) is more than 1170 mg/kg-day; in the data set on Lepomis macrochirus, more than 100 µg/mL; in the data set with Tagia sp. it was more than 1000 mg/kg. The LR50 with Aphidius rhopalosiphi and with Typhlodromus pyri was more than 45 g/ha in each case.
